Where no end group is shown, it is not given here.
B1: ^99mTc-HYNIC-Duramycin (peptide)
peptide: CKQSCSFGPFTFVCDGNTK
modifications: thioether bonds between positions 1-18, 4-14 and 5-11; amide bond between positions 6 and 19; one HYNIC (6-hydrazinopyridine-3-carboxylic acid) moiety on either Cys-1 or Lys-2, chelating 99mTc with tricine and TPPTS co-ligands
notes: Lantibiotic peptide, cross-linked; also called 99mTc-Duramycin; radiolabeled Duramycin

Tests used:
[1] = liposomes; bind PtdE at equal-molar ratio; cited from earlier work
[2] = literature (McNulty 2003); cited from earlier work
[3] = Cysteine challenge stability test; type: physicochemical; settings: cysteine-to-Duramycin ratio of 100:1
Method: HPLC method 2. Jupiter C18 column (90 Å pore size, 250×4.6 mm) was used with a buffered mobile phase system consisting of phosphate buffer (10 mM sodium phosphate, pH 6.7) and acetonitrile at a flow rate of 1.0 ml/min at room temperature. A baseline of 5 min at 90% buffer A (phosphate buffer, pH6.7) and 10% buffer B (acetonitrile) was followed by a linear gradient to 10% buffer A and 90% buffer B in 30 min. The level of radioactivity in the HPLC elute was monitored by gamma counting at an energy window of 140±15 keV.
HYNIC-Duramycin was labeled with ^99mTc using the tricine-phosphine co-ligand system. Specifically, 15 μg of HYNIC-Duramycin was mixed with 40 mg of tricine, 1 mg of TPPTS and 20 μg SnCl2 in 0.8 ml at pH 5.3. The labeling was initiated with the addition of about 1 mCi of ^99mTc. The incubation was allowed to proceed for 40 min at room temperature. The final radiopharmaceutical, ^99mTc-HYNIC-Duramycin, was analyzed and purified using HPLC method 2. After purification, acetonitrile was removed by evaporation under nitrogen, and ^99mTc-HYNIC-Duramycin was reconstituted in saline for usage. ^99mTc-HYNIC-Duramycin^1 was synthesized in the same fashion. For stability tests, cysteine challenge was carried out at a cysteine-to-^99mTc-Duramycin ratio of 100 to 1, in 0.01 mM phosphate buffer (pH 6.8) for 2 hr at room temperature. The sample was analyzed with radioHPLC (method 2).

[4] = humans, including patients with Cystic Fibrosis; cited from earlier work
rat serum albumin = rat serum albumin (rat, UniProt P02770 25-608); test: radioHPLC analysis of the tracer in the presence of rat serum albumin
Chain of rat serum albumin (P02770 25-608 limits assumed): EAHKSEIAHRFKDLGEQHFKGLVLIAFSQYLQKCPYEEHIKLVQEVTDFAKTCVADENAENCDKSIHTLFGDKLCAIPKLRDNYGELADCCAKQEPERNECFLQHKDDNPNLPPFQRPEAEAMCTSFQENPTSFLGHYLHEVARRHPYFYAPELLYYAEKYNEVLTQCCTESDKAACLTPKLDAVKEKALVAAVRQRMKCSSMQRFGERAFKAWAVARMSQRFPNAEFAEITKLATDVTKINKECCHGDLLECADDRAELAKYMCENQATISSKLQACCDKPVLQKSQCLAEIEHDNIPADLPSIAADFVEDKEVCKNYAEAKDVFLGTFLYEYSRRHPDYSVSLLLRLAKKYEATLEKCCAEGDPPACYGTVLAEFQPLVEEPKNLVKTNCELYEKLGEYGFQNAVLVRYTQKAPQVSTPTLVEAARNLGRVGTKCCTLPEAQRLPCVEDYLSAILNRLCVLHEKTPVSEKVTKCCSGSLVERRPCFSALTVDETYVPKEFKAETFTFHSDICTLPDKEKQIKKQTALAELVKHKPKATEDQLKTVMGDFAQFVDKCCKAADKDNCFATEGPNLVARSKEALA

Row | Molecule | dissociation constant [1] | hepatic retention [2] | radioactivity associated with the peptide diminished/reduced in cysteine challenge [3] [%] | toxicity and immunogenicity in clinical testing [4] | binding result (rat serum albumin)
1 | homolog of Duramycin with Arg replacing Lys at position two, CRQSCSFGPFTFVCDGNTK (SEQ ID NO 2) (not fully specified (bridges); ends and bridges not checked; also: lanthionine bridges, places not given here; listed as Streptoverticillium cinnamoneus) [Cinnamycin] | nanomolar range | – | – | – | –
2 | 19-amino acid peptide produced by Streptoverticillium cinnamoneus, CKQSCSFGPFTFVCDGNTK (SEQ ID NO 1), binds PtdE [Duramycin] | nanomolar range | retained for an extended duration (e.g., many days) in the liver without complete washout | 90 | lack of significant toxicity and immunogenicity | –
3 | B1 | – | – | – | – | no binding
